According to the supplement of paper PMC10307832:

How the values were obtained:
Assay in all cases: relative viability (nuclei count vs DMSO), 5 days (fraction); higher = more cells survive
[1] = compound: C1CC1C(=O)NC2=NNC3=C2C=CC(=C3)C4=CC(=CC=C4)C(=O)NC5CC5 [XMD13-2] + Nc1nc2[nH]cc(CCc3ccc(C(=O)N[C@@H](CCC(=O)O)C(=O)O)cc3)c2c(=O)[nH]1 [Pemetrexed] (partner 0.2 µM)
Outline: (§1)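 A single step with final 0.05% Triton X-100, 1% formaldehyde and 1 ug/ml Hoechst fixed the cells and stained nuclei 5 days after treatment. Lung cancer cell lines in 1536-well plates had been treated by pin tool the day after seeding with one drug alone or a fixed anchor-drug dose plus five library-drug doses (not always all listed) in √10 steps, and nuclei were counted on 4× images. Relative viability is the ratio of nuclei in treated wells to nuclei in vehicle wells, taken as the median of duplicate plates.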

[2] = compound: Cc1nc(Nc2ncc(C(=O)Nc3c(C)cccc3Cl)s2)cc(N2CCN(CCO)CC2)n1 [Dasatinib] + COc1cc2c(Oc3ccc(NC(=O)C4(C(=O)Nc5ccc(F)cc5)CC4)cc3F)ccnc2cc1OCCCN1CCOCC1 [Foretinib] (partner 0.25 µM)
Outline: as §1

[3] = compound: C1CC1C(=O)NC2=NNC3=C2C=CC(=C3)C4=CC(=CC=C4)C(=O)NC5CC5 [XMD13-2] + CS(=O)(=O)N1CCN(Cc2cc3nc(-c4cccc5[nH]ncc45)nc(N4CCOCC4)c3s2)CC1 [Pictilisib] (partner 1 µM)
Outline: as §1

[4] = compound: Cc1nc(Nc2ncc(C(=O)Nc3c(C)cccc3Cl)s2)cc(N2CCN(CCO)CC2)n1 [Dasatinib] + C[C@@H](Oc1cc(-c2cnn(C3CCNCC3)c2)cnc1N)c1c(Cl)ccc(F)c1Cl [Crizotinib] (partner 1 µM)
Outline: as §1

In the case of NCI-H1975, the relative viability ([1]; first compound 0.05 µM) was 0.295, the relative viability ([1]; first compound 0.1581 µM) was 0.286 and the relative viability ([1]; first compound 0.5 µM) was 0.295. It also gave a relative viability ([1]; first compound 1.581 µM) of 0.316, a relative viability ([1]; first compound 5 µM) of 0.305 and a relative viability ([2]; first compound 0.005 µM) of 0.918. For the same cell line, the relative viability ([2]; first compound 0.01581 µM) was 0.817, the relative viability ([2]; first compound 0.05 µM) was 0.722 and the relative viability ([2]; first compound 0.1581 µM) was 0.439. The relative viability ([2]; first compound 0.5 µM) was 0.225, the relative viability ([3]; first compound 0.05 µM) was 0.319 and the relative viability ([3]; first compound 0.1581 µM) was 0.3. For the same cell line, the relative viability ([3]; first compound 0.5 µM) was 0.333, the relative viability ([3]; first compound 1.581 µM) was 0.322 and the relative viability ([3]; first compound 5 µM) was 0.325. For the same cell line, the relative viability ([4]; first compound 0.005 µM) was 0.858, the relative viability ([4]; first compound 0.01581 µM) was 0.852 and the relative viability ([4]; first compound 0.05 µM) was 0.612. It also gave a relative viability ([4]; first compound 0.1581 µM) of 0.404 and a relative viability ([4]; first compound 0.5 µM) of 0.272.

In the case of NCI-H1993, the relative viability ([1]; first compound 0.05 µM) was 0.62, the relative viability ([1]; first compound 0.1581 µM) was 0.619 and the relative viability ([1]; first compound 0.5 µM) was 0.613. The relative viability ([1]; first compound 1.581 µM) was 0.643, the relative viability ([1]; first compound 5 µM) was 0.555 and the relative viability ([2]; first compound 0.005 µM) was 0.641. The relative viability ([2]; first compound 0.01581 µM) was 0.59, the relative viability ([2]; first compound 0.05 µM) was 0.561 and the relative viability ([2]; first compound 0.1581 µM) was 0.472. The relative viability ([2]; first compound 0.5 µM) was 0.496, the relative viability ([3]; first compound 0.05 µM) was 0.846 and the relative viability ([3]; first compound 0.1581 µM) was 0.783. It also gave a relative viability ([3]; first compound 0.5 µM) of 0.781, a relative viability ([3]; first compound 1.581 µM) of 0.937 and a relative viability ([3]; first compound 5 µM) of 0.845. For the same cell line, the relative viability ([4]; first compound 0.005 µM) was 0.881, the relative viability ([4]; first compound 0.01581 µM) was 0.658 and the relative viability ([4]; first compound 0.05 µM) was 0.579. For the same cell line, the relative viability ([4]; first compound 0.1581 µM) was 0.501 and the relative viability ([4]; first compound 0.5 µM) was 0.465.

NCI-H2009 gave a relative viability ([1]; first compound 0.05 µM) of 1.01, a relative viability ([1]; first compound 0.1581 µM) of 1.1 and a relative viability ([1]; first compound 0.5 µM) of 1.01. It also gave a relative viability ([1]; first compound 1.581 µM) of 1.01, a relative viability ([1]; first compound 5 µM) of 1.07 and a relative viability ([2]; first compound 0.005 µM) of 1.15. The relative viability ([2]; first compound 0.01581 µM) was 0.984, the relative viability ([2]; first compound 0.05 µM) was 0.925 and the relative viability ([2]; first compound 0.1581 µM) was 0.882. It also gave a relative viability ([2]; first compound 0.5 µM) of 0.216, a relative viability ([3]; first compound 0.05 µM) of 0.838 and a relative viability ([3]; first compound 0.1581 µM) of 0.945. It also gave a relative viability ([3]; first compound 0.5 µM) of 0.904, a relative viability ([3]; first compound 1.581 µM) of 0.822 and a relative viability ([3]; first compound 5 µM) of 0.566. The relative viability ([4]; first compound 0.005 µM) was 0.947, the relative viability ([4]; first compound 0.01581 µM) was 0.936 and the relative viability ([4]; first compound 0.05 µM) was 0.684. It also gave a relative viability ([4]; first compound 0.1581 µM) of 0.314 and a relative viability ([4]; first compound 0.5 µM) of 0.141.

NCI-H2023 gave a relative viability ([1]; first compound 0.05 µM) of 0.261, a relative viability ([1]; first compound 0.1581 µM) of 0.206 and a relative viability ([1]; first compound 0.5 µM) of 0.195. The relative viability ([1]; first compound 1.581 µM) was 0.242, the relative viability ([1]; first compound 5 µM) was 0.246 and the relative viability ([2]; first compound 0.005 µM) was 0.642. It also gave a relative viability ([2]; first compound 0.01581 µM) of 0.749, a relative viability ([2]; first compound 0.05 µM) of 0.434 and a relative viability ([2]; first compound 0.1581 µM) of 0.377. It also gave a relative viability ([2]; first compound 0.5 µM) of 0.297, a relative viability ([3]; first compound 0.05 µM) of 0.318 and a relative viability ([3]; first compound 0.1581 µM) of 0.244. For the same cell line, the relative viability ([3]; first compound 0.5 µM) was 0.219, the relative viability ([3]; first compound 1.581 µM) was 0.24 and the relative viability ([3]; first compound 5 µM) was 0.225. It also gave a relative viability ([4]; first compound 0.005 µM) of 0.491, a relative viability ([4]; first compound 0.01581 µM) of 0.492 and a relative viability ([4]; first compound 0.05 µM) of 0.376. For the same cell line, the relative viability ([4]; first compound 0.1581 µM) was 0.281 and the relative viability ([4]; first compound 0.5 µM) was 0.26.

Cell Line NCI-H2085 has a relative viability ([1]; first compound 0.05 µM) of 0.959, a relative viability ([1]; first compound 0.1581 µM) of 0.838 and a relative viability ([1]; first compound 0.5 µM) of 0.977. The relative viability ([1]; first compound 1.581 µM) was 0.789, the relative viability ([1]; first compound 5 µM) was 1.03 and the relative viability ([2]; first compound 0.005 µM) was 0.855. It also gave a relative viability ([2]; first compound 0.01581 µM) of 0.783, a relative viability ([2]; first compound 0.05 µM) of 0.338 and a relative viability ([2]; first compound 0.1581 µM) of 0.198. The relative viability ([2]; first compound 0.5 µM) was 0.173, the relative viability ([3]; first compound 0.05 µM) was 0.828 and the relative viability ([3]; first compound 0.1581 µM) was 0.445. For the same cell line, the relative viability ([3]; first compound 0.5 µM) was 0.444, the relative viability ([3]; first compound 1.581 µM) was 0.444 and the relative viability ([3]; first compound 5 µM) was 0.481. For the same cell line, the relative viability ([4]; first compound 0.005 µM) was 0.93, the relative viability ([4]; first compound 0.01581 µM) was 0.806 and the relative viability ([4]; first compound 0.05 µM) was 0.408. The relative viability ([4]; first compound 0.1581 µM) was 0.193 and the relative viability ([4]; first compound 0.5 µM) was 0.158.

With NCI-H2087 the relative viability ([1]; first compound 0.05 µM) was 0.635, the relative viability ([1]; first compound 0.1581 µM) was 0.661 and the relative viability ([1]; first compound 0.5 µM) was 0.624. For the same cell line, the relative viability ([1]; first compound 1.581 µM) was 0.67, the relative viability ([1]; first compound 5 µM) was 0.583 and the relative viability ([2]; first compound 0.005 µM) was 1.2. For the same cell line, the relative viability ([2]; first compound 0.01581 µM) was 1.16, the relative viability ([2]; first compound 0.05 µM) was 1.31 and the relative viability ([2]; first compound 0.1581 µM) was 0.756. For the same cell line, the relative viability ([2]; first compound 0.5 µM) was 0.464, the relative viability ([3]; first compound 0.05 µM) was 0.95 and the relative viability ([3]; first compound 0.1581 µM) was 0.846. For the same cell line, the relative viability ([3]; first compound 0.5 µM) was 1.05, the relative viability ([3]; first compound 1.581 µM) was 0.888 and the relative viability ([3]; first compound 5 µM) was 0.772. For the same cell line, the relative viability ([4]; first compound 0.005 µM) was 0.858, the relative viability ([4]; first compound 0.01581 µM) was 0.938 and the relative viability ([4]; first compound 0.05 µM) was 0.946. The relative viability ([4]; first compound 0.1581 µM) was 0.863 and the relative viability ([4]; first compound 0.5 µM) was 0.639.

NCI-H2126 gave a relative viability ([1]; first compound 0.05 µM) of 0.748, a relative viability ([1]; first compound 0.1581 µM) of 0.656 and a relative viability ([1]; first compound 0.5 µM) of 0.634. For the same cell line, the relative viability ([1]; first compound 1.581 µM) was 0.704, the relative viability ([1]; first compound 5 µM) was 0.647 and the relative viability ([2]; first compound 0.005 µM) was 1.18. The relative viability ([2]; first compound 0.01581 µM) was 0.799, the relative viability ([2]; first compound 0.05 µM) was 1.2 and the relative viability ([2]; first compound 0.1581 µM) was 0.852. The relative viability ([2]; first compound 0.5 µM) was 0.425, the relative viability ([3]; first compound 0.05 µM) was 0.508 and the relative viability ([3]; first compound 0.1581 µM) was 0.448. The relative viability ([3]; first compound 0.5 µM) was 0.503, the relative viability ([3]; first compound 1.581 µM) was 0.518 and the relative viability ([3]; first compound 5 µM) was 0.502. The relative viability ([4]; first compound 0.005 µM) was 0.966, the relative viability ([4]; first compound 0.01581 µM) was 0.9 and the relative viability ([4]; first compound 0.05 µM) was 0.915. For the same cell line, the relative viability ([4]; first compound 0.1581 µM) was 0.607 and the relative viability ([4]; first compound 0.5 µM) was 0.369.

NCI-H2170 showed a relative viability ([1]; first compound 0.05 µM) of 0.284, a relative viability ([1]; first compound 0.1581 µM) of 0.294 and a relative viability ([1]; first compound 0.5 µM) of 0.323. The relative viability ([1]; first compound 1.581 µM) was 0.267, the relative viability ([1]; first compound 5 µM) was 0.285 and the relative viability ([2]; first compound 0.005 µM) was 0.958. It also gave a relative viability ([2]; first compound 0.01581 µM) of 0.927, a relative viability ([2]; first compound 0.05 µM) of 0.708 and a relative viability ([2]; first compound 0.1581 µM) of 0.678. It also gave a relative viability ([2]; first compound 0.5 µM) of 0.491, a relative viability ([3]; first compound 0.05 µM) of 0.349 and a relative viability ([3]; first compound 0.1581 µM) of 0.33. The relative viability ([3]; first compound 0.5 µM) was 0.338, the relative viability ([3]; first compound 1.581 µM) was 0.275 and the relative viability ([3]; first compound 5 µM) was 0.247. The relative viability ([4]; first compound 0.005 µM) was 1.1, the relative viability ([4]; first compound 0.01581 µM) was 0.94 and the relative viability ([4]; first compound 0.05 µM) was 0.84. The relative viability ([4]; first compound 0.1581 µM) was 0.547 and the relative viability ([4]; first compound 0.5 µM) was 0.523.
